Experimental data: US20250241873A1, “KETAMINE NASAL SPRAY FORMULATION AND METHODS OF USE” (INESKET LLC, priority 2024, published 2025)
Where two headings read alike, the source gives them in different places.

Columns and labels:
[1] = Open-label absolute bioavailability / pharmacokinetic study of intranasal ketamine in healthy volunteers; type: in vivo, human; conditions: for Absolute Bioavailability (%) / bioavailability: relative to IV, dose-corrected ratio of least squares geometric mean AUC(inf); for AUC(0-t): read-out: AUC (0-4 hr)
Experimental: This was an open-label study in 25 healthy volunteers. Subjects received single doses of ketamine by intravenous (IV) injection (20 mg), intramuscular (IM) injection (20 mg), or intranasal (IN) administration (20 mg, 40 mg and 80 mg).
Blood samples for the measurement of plasma concentrations of (R)- and (S)-ketamine and (R)- and (S)-norketamine were collected pre-dose and at 0.033, 0.083, 0.167, 0.25, 0.333, 0.5, 0.75, 1, 1.25, 2, 2.5, 3, 4, 6, 8, 12, 16, and 24 hours post-dose for each study period.
All estimates for the parent and metabolite were consistent within each formulation or dose for the racemate, (R)-, and (S)-enantiomers. After IN administration, the estimates were slightly higher for the metabolite than the parent.

NMDA receptors = conditions: cited from earlier work
[2] = acidic pH near 4.5
Text: A Buffer may be used to control the pH of the nasal spray solution at, or near 4.5. […] Also, the local pH value inside the nasal cavity directly influences the rate and extent of drug absorption. […] Additionally, maintaining pH at or above 4.0 helps to reduce local nasal tract irritation. The buffer is optional.

[3] = IN administration of racemic ketamine 20 mg
[4] = IN administration of racemic ketamine 40 mg
[5] = IN administration of racemic ketamine 80 mg
[6] = Dose 20 mg, hydro-alcoholic composition, minimum-maximum
[7] = Dose 40 mg, hydro-alcoholic composition, minimum-maximum
[8] = human, plasma, inhaled or intranasal, 20 mg, AUC (0-1 hr), intranasal, effective amount 20 mg
[9] = human, plasma, inhaled or intranasal, 20 mg, intranasal, effective amount 20 mg
[10] = human, plasma, inhaled or intranasal, intranasal, effective amount 20 mg
[11] = human, plasma, other: intranasal, Dose 20 mg, hydro-alcoholic composition, minimum-maximum
[12] = human, plasma, other: intranasal, Dose 40 mg, hydro-alcoholic composition, minimum-maximum
[13] = human, plasma, other: intranasal, IN administration of racemic ketamine 20 mg
[14] = human, plasma, other: intranasal, IN administration of racemic ketamine 40 mg
[15] = human, plasma, other: intranasal, IN administration of racemic ketamine 80 mg
[16] = Dose 10 mg, hydro-alcoholic composition, minimum-maximum
[17] = human, plasma, other: intranasal, Dose 10 mg, hydro-alcoholic composition, minimum-maximum

Row | SMILES | Absolute Bioavailability (%) [1, 3] | Absolute Bioavailability (%) [1, 4] | Absolute Bioavailability (%) [1, 5] | AUC(0-1 hr) [1, 6] | AUC(0-4 hr) [1, 6] | Cmax [1, 11] | Tmax [1, 11] | bioavailability [1, 13] | bioavailability [1, 14] | bioavailability [1, 15] | other results
1 | N[C@]1(c2ccccc2Cl)CCCCC1=O [(S)-Norketamine] | 92.4% | 77.8% | 54.9% |  |  |  |  |  |  |  | 
2 | CNC1(c2ccccc2Cl)CCCCC1=O (racemic) [(RS)-Ketamine, (2-(2-chlorophenyl)-2-(methylamino)-cyclohexanone)] |  |  |  | 28.7-127 hr′ng/mL | 60.0-209 hr′ng/mL | 48 to 280 ng/mL | 4.98 to 30 min | 82.1% | 69.1% | 51.8% | AUC(0-1 hr) [1, 7]: 71.4-225 hr′ng/mL; AUC(0-4 hr) [1, 7]: 160-433 hr′ng/mL; AUC(0-1 hr) [1, 8]: 28.7 to 127 ng·h/mL; AUC(0-t) [1, 9]: 60 to 209 ng·h/mL; AUC(0-1 hr) ([1]; human, plasma, inhaled or intranasal, 40 milligrams, AUC (0-1 hr), intranasal, effective amount 40 milligrams): 71.4 to 225 ng·h/mL; AUC(0-t) ([1]; human, plasma, inhaled or intranasal, 40 milligrams, intranasal, effective amount 40 milligrams): 160 to 433 ng·h/mL; Tmax [1, 10]: 4.98 to 30 min; Tmax ([1]; human, plasma, inhaled or intranasal, intranasal, effective amount 40 milligrams): 10 to 30 min; Cmax [1, 12]: 94.7 to 367 ng/mL; Tmax [1, 12]: 10 to 30 min
3 | NC1(c2ccccc2Cl)CCCCC1=O (racemic) [(RS)-Norketamine] | 94.4% | 78.8% | 54.8% |  |  |  |  |  |  |  | 
4 | N[C@@]1(c2ccccc2Cl)CCCCC1=O [(R)-Norketamine] | 90.7% | 77.8% | 54.3% |  |  |  |  |  |  |  | 
5 | CN[C@@]1(c2ccccc2Cl)CCCCC1=O [(R)-Ketamine] |  |  |  | 40.5-129 hr′ng/mL | 93.0-251 hr′ng/mL | 53.4 to 206 ng/mL | 10 to 30 min | 81.6% | 68.6% | 51.1% | AUC(0-1 hr) [1, 16]: 15.9-70.8 hr′ng/mL; AUC(0-4 hr) [1, 16]: 33.6-118 hr′ng/mL; Cmax [1, 17]: 26.5 to 155 ng/mL; Tmax [1, 17]: 4.98 to 30 min; Ki (NMDA receptors): 1.1 µM
6 | CNC1(c2ccccc2Cl)CCCCC1=O.Cl (stereo not drawn) [Es/ketamine HCl] |  |  |  |  |  |  |  |  |  |  | stability of solution [2]: better stability
7 | CN[C@]1(c2ccccc2Cl)CCCCC1=O [(S)-Ketamine] |  |  |  | 30.9-96.7 hr′ng/mL | 66.9-181 hr′ng/mL | 41.3 to 161 ng/mL | 10 to 30 min | 82.4% | 68.9% | 51.5% | AUC(0-1 hr) [1, 16]: 12.8-55.8 hr′ng/mL; AUC(0-4 hr) [1, 16]: 26.4-90.4 hr′ng/mL; AUC(0-1 hr) ([1]; human, plasma, inhaled or intranasal, 10 mg, AUC (0-1 hr), intranasal, effective amount 10 mg): 12.8 to 55.8 ng·h/mL; AUC(0-t) ([1]; human, plasma, inhaled or intranasal, 10 mg, intranasal, effective amount 10 mg): 26.4 to 90.4 ng·h/mL; AUC(0-1 hr) [1, 8]: 30.9 to 96.7 ng·h/mL; AUC(0-t) [1, 9]: 66.9 to 181 ng·h/mL; Tmax ([1]; human, plasma, inhaled or intranasal, intranasal, effective amount 10 mg): 5 to 19.8 min; Tmax [1, 10]: 10 to 30 min; Cmax [1, 17]: 21.4 to 125 ng/mL; Tmax [1, 17]: 5 to 20 min; Ki (NMDA receptors): 3.2 µM
